From patent US12263172B2, “Toll-like receptor agonists for use in the treatment of hepatitis b” (priority 2019, dated 2025)

How the values were obtained:
[1] = embryofetal development in rabbits; format: in vivo
Text: (§1) Exposure increased more than dose-proportionally at low doses. Variability in exposure was high. • In vitro plasma protein binding was between 79.6% and 94.2% in animals and humans. Volume of distribution after intravenous dosing was high. […] Main metabolic pathways were oxygenation, hydrogenation, dehydrogenation, dealkylation, acetylation, glucuronidation, and/or glutathione conjugation. • In rats, >80% of drug-related material was found in feces, 11% to 20% in bile, and <4% in urine. […] There were no effects on embryofetal development up to 1 mg/kg/dose in rats and 30 mg/kg/dose in rabbits.

[2] = respiratory and central nervous system safety pharmacology in rats; settings: rat, in vivo
Text: as §1

In the case of `CCCCOc1nc(N)c2[nH]cc(Cc3ccc(CN4CCCC4)cc3)c2n1` [Compound 4], the “dose without effects on embryofetal development” value [1] is reported as ≤ 30 mg/kg/dose and the “effects on respiratory or central nervous system parameters” value [2] is reported as “no relevant effects”.
